Data: EP4039094A1, “NOVEL ANTIFUNGAL COMPOUNDS” (Max-Planck-Gesellschaft zur Förderung der Wissenschaften …, priority 2021, dated 2022)

How the values were obtained:
[1] = target: T1, Stp1/Stp4/Stp3 subcomplex (Mycosarcoma maydis, UniProt A0A0D1C5E3+A0A0D1CU07+A0A0D1EAN2); test: Alamar Blue viability assay in S. cerevisiae 2-hybrid strain NL73 (viability depends on Stp complex formation); type: cell-based, U. maydis; conditions: for activity in the Alamar Blue assay with NL73: result in words
T1 sequence (A0A0D1CU07 29-515): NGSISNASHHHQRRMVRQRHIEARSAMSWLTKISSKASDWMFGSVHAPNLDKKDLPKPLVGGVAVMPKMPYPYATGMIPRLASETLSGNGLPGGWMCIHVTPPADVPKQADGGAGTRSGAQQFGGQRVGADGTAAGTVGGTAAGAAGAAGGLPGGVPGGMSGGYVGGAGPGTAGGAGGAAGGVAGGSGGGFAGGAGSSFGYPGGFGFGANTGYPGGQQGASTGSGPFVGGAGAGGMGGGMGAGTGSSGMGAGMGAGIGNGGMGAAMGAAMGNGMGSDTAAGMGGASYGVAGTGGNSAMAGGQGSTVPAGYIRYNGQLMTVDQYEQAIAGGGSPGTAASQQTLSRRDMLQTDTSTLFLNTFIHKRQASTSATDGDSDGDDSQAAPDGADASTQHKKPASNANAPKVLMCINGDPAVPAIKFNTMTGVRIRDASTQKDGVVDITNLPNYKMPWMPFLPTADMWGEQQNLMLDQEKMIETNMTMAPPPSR
T1 sequence (A0A0D1C5E3 24-129): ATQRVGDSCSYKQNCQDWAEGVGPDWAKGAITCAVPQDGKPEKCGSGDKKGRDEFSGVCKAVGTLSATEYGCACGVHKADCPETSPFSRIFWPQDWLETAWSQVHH
T1 sequence (A0A0D1EAN2 25-327): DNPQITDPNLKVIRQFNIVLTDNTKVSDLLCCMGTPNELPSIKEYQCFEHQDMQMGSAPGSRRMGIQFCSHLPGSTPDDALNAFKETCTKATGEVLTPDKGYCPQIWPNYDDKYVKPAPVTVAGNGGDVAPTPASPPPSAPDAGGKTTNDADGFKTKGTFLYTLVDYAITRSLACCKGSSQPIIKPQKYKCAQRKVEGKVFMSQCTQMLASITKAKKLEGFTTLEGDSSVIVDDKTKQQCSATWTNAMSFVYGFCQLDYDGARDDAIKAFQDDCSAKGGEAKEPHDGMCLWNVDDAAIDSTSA
Source text: To develop a screening platform based on Stp complex formation, a Saccharomyces cerevisiae 2-hybrid system was used. […] After co-transformation, reporter gene transcription is activated only if the two fusion proteins interact in the yeast nucleus. Moreover, the S. cerevisiae strain AH109 harbours the reporter genes ADE2 and HIS3, which encode for two enzymes that are crucial for adenine (Ade) and histidine (His) biosynthesis and thereby enable nutritional selection as a read-out for the interaction between proteins. In the following experiments, growth on high-stringency synthetic defined (SD) medium (SD -Leu -Trp -Ade -His) was used to identify if the complex members interact between them causing expression of ADE2 and HIS3. Additionally, strains were also grown on low-stringency medium (SD -Leu -Trp) to confirm their viability. […] All experiments were done with three independent transformants to exclude false positives due to spontaneous mutations.
The S. cerevisiae strain AH109 from Clontech (Saint-Germain-en-Laye, France) is auxotrophic for tryptophan, leucine, adenine and histidine. In addition, lacz is under control of the MEL1 UAS to be used as readout for quantitative β-galactosidase assays.
The resulting test strain NL73 (AD-Stp4/BD-Stp1/myc-Stp3) expresses the Stp1/Stp4/Stp3 subcomplex. NL73 carries the following three plasmids: pGBKT7-stp1: pGBKT7 vector expressing proteins fused to the GAL4 DNA binding domain (DNA-BD). pGBKT7 also contains the T7 promoter, a c-Myc epitope tag, and a MCS. The vector carries a Kanamycin resistance gene (Kanr) for selection in E. coli and the TRP1 nutritional marker for selection in yeast. pGAD-stp4: pGADT7 vector expressing proteins fused to a GAL4 activation domain (AD). The GAL4 AD fusion contains an N-terminal nuclear localization signal that targets the protein to the yeast nucleus, and a HA Tag, located between the GAL4 AD and the protein of interest. The vector carries an ampicillin resistance gene (Ampr) for selection in E. coli and a LEU2 nutritional marker for selection in yeast. pYEA-stp3-myc: pYEA vector expressing proteins under the control of the phosphoglycerate kinase promoter. The vector carries an ampicillin resistance gene (Ampr) for selection in E. coli and an ADE2 nutritional marker for selection in yeast. As control strain, NL70 containing empty vectors was generated (AH109Δabc9 pGAD::LEU2 pGBK::TRP1 pYEA::ADE2).
After that, 25 µl of NL73 cell suspension were dispensed into the assay plates using Multidrop Combi (Thermofisher Scientific) giving a final screening concentration of 10 µM. One column of the assay plate was filled with 25 µl of NL70 control strain cell suspension as negative control. Plates were sealed with Breathe-Easy sealing membrane (Sigma, Z380059), lidded and incubated in a humid chamber over night at 30°C and 140 rpm in an HT Multitron Pro (Infors). […] For the viability assay, the alamar Blue HS Cell Viability reagent (Invitrogen, #A50101) was pre-diluted using an equal amount of dVE-H2O and 5 µl of diluted Alamar Blue were added to the screening plates using Multidrop Combi. The plates were sealed again and incubated for 4 h at room temperature, unlidded. […] Screening data was normalized to DMSO-treated NL73 cells (that received DMSO in the same concentration as in samples where compounds dissolved in DMSO were added) being 100% and DMSO-treated NL70 cells representing 0% viability and analyzed with Quattro Software Suite (Quattro Research GmbH).

[2] = target: T1, Stp1/Stp4/Stp3 subcomplex; test: Beta-Glo confirmatory assay (β-galactosidase expression) in NL73; type: cell-based, U. maydis; conditions: NL73 strain, Table 5; read-out: B-glo IC50
Procedure: This system allows luminescence-based quantification of β-galactosidase expression in cells which serves as a readout for promoter activation by interacting complex members Stp1, Stp3 and Stp4. Overnight cultures of NL73 and NL70 strains were harvested as described above. Dilution series of compound stock solution were pre-dispensed into black 384-well assay plates (Corning 4513) using Echo520 Nanoliter dispenser starting from 10 µM with 3-fold dilution over 8 steps. In the viability setup, 15 µl of NL73 cell suspension were dispensed into the assay plates using Multidrop Combi. One column of the assay plate was filled with 15 µl of NL70 cell suspension. In the toxicity setup, 15 µl of NL70 cell suspension in low stringency medium were dispensed into the assay plates with one column being filled with 15 µl of NL70 cell suspension in high stringency medium. Plates were sealed with Breathe-Easy sealing membrane, lidded and incubated in a humid chamber over night at 30°C and 140 rpm in an Infors HT Multitron Pro. After approximately 19 h, plates were centrifuged for 1 min at 500 rpm. 4 µl of Beta-Glo assay solution were added using Multidrop Combi. The plates were sealed again and incubated for 2.5 h at room temperature, unlidded. Luminescence readout was determined on a Spectramax Paradigm detection platform for 0.2 s. Dose response data was analysed with Quattro Software Suite.

[3] = NL73 strain, Table 5, read-out: A-blue IC50

With `Cc1ccc(-c2c(-c3ccc(C)cc3)[n+]([O-])c3ccccn23)cc1` [Compound 1-A] the IC50 [1, 3] was 140 nM, the “activity in the Alamar Blue assay with NL73” value [1] was “nanomolar potency” and the IC50 [2] was 760 nM.
Work on `CC(C)n1ncc2cc(NS(=O)(=O)c3cc(F)ccc3F)cnc21` [Compound 1-B] yielded an IC50 ([1]; read-out: IC50 in the Alamar Blue viability assay of NL73) of 2500 nM.
With `Cc1ccc(CSc2nc(=O)n(C3CCCC3)c3c2CCC3)cc1` [Compound 1-C] the IC50 ([1]; inhibitory activity on NL73 viability, Table 6, read-out: IC50) was 670 nM and the “activity in the Alamar Blue assay with NL73” value [1] was “active in the nanomolar range”.
For `[O-][n+]1c(-c2ccc(C(F)(F)F)cc2)c(-c2ccc(C(F)(F)F)cc2)n2ccccc21` [Compound 2-A], the IC50 [1, 3] was 20 nM and the IC50 [2] was 230 nM.
`O=[N+]([O-])c1ccc(-c2c(-c3ccccc3)n3ccccc3[n+]2[O-])cc1` [Compound 3-A] showed an IC50 [1, 3] of 250 nM and an IC50 [2] of 860 nM.
